Test results from patent US20260274785A1, “CYCLOHEXYL OR HETEROCYCLOALKYL BETA-HYDROXY ALKYL AMINES FOR USE IN THE TREATMENT OF HYPERGLYCAEMIA AND DISORDERS CHARACTERISED BY HYPERGLYCAEMIA” (ATROGI AB, priority 2023, published 2026).
Structures can show the parent of a compound that is named as a salt.

Experiments:
L6-myotubes [1] = assay: Glucose uptake (3H-2-deoxyglucose) in differentiated L6-myotubes; assay type: cell-based; conditions: agonist final concentration 1×10^−5 M, 3H-2-deoxyglucose uptake, read-out: Biological example 1: glucose uptake, activity compared to that of isoproterenol
Method: (§1) L6-myoblasts were grown in Dulbecco's Modified Eagle's Medium (DMEM) containing 1 g/L glucose supplemented with 10% fetal bovine serum, 2 mM L-Glutamine, 50 U/mL penicillin, 50 μg/mL streptomycin and 10 mM HEPES. Cells were plated at 1×10^5 cells per mL in 24-well plates. After reaching 90% confluence the cells were grown in medium containing 2% FBS for 7 days where upon cells differentiated into myotubes.
Differentiated L6-myotubes were serum-starved overnight in medium containing 0.5% fatty-acid free BSA and stimulated with an agonist, with a final concentration of 1×10^−5 M. After 1 h 40 min the cells were washed with warm glucose free medium or PBS twice and another portion of agonist was added to the glucose free medium. After 20 min the cells were exposed to 50 nM ^3H-2-deoxyglucose for another 10 min before washed in ice cold glucose free medium or PBS three times and lysed in 400 μL/well 0.2 M NaOH for 1 h at 60° C. The cell lysate was mixed with 4 mL scintillation buffer (Emulsifier Safe, Perkin Elmer) and the radioactivity was detected in a β-counter (Tri-Carb 4810TR, Perkin Elmer). The activity for each compound is compared to that of isoproterenol.

L6-myotubes [2] = assay: Measurement of intracellular cAMP levels in differentiated L6 cells; assay type: cell-based; conditions: Rattus norvegicus, 0.25 h, agonist final concentration 1×10^−5 M, 15 min, alpha screen cAMP kit, read-out: Biological example 2: intracellular cAMP levels, activity compared to that of isoproterenol
Method: as §1
Differentiated cells were serum-starved overnight and stimulated with an agonist, final concentration 1×10^−5 M, for 15 min in stimulation buffer (HBSS supplemented with 1% BSA, 5 mM HEPES and 1 mM IBMX, pH 7.4). The medium was aspirated and 100 μL of 95% EtOH was added to each well of the 24-well plate and cells were kept at −20° C. overnight. The EtOH was allowed to evaporate and 500 μL of lysis buffer (1% BSA, 5 mM HEPES and 0.3% Tween-20, pH 7.4) was added to each well. The plate was kept at −80° C. for 30 min and then at −20° C. until the day of detection when the samples were thawed. Intracellular cAMP levels were detected using an alpha screen cAMP kit (6760635D from Perkin Elmer). The activity for each compound is compared to that of isoproterenol.

`CC(=O)NC(C)(C)C[C@H]1CC[C@@H](NC[C@H](O)c2cccc(F)c2)CC1` [Example 1, N-(1-((cis)-4-(((R)-2-(3-Fluorophenyl)-2-hydroxyethyl)amino)-cyclohexyl)-2-methylpropan-2-yl)acetamide] was tested. Which Emax at 10 µM (L6-myotubes [1]) did it give?
Its Emax at 10 µM is 50 to 75%.

And the Emax at 10 µM (L6-myotubes [2])?
The Emax at 10 µM was < 25%.

`CC(C)(C[C@H]1CC[C@@H](NC[C@H](O)c2cccc(F)c2)CC1)NS(C)(=O)=O` [Example 2, N-(1-((cis)-4-(((R)-2-(3-fluorophenyl)-2-hydroxyethyl)amino)-cyclohexyl)-2-methylpropan-2-yl)methanesulfonamide] was tested. Which Emax at 10 µM (L6-myotubes [1]) did it give?
The Emax at 10 µM was < 25%.

What about the Emax at 10 µM (L6-myotubes [2]) of the same compound?
The Emax at 10 µM was < 25%.

Which results are given for `CC(=O)NC(C)(C)C[C@H]1CC[C@@H](NC[C@H](O)c2cncc(F)c2)CC1` [Example 3, N-(1-((cis)-4-(((R)-2-(5-Fluoropyridin-3-yl)-2-hydroxyethyl)amino)-cyclohexyl)-2-methylpropan-2-yl)acetamide]?
Emax at 10 µM (L6-myotubes [1]): > 75%; Emax at 10 µM (L6-myotubes [2]): < 25%

With `CC(C)(C[C@H]1CC[C@@H](NC[C@H](O)c2cncc(F)c2)CC1)NS(C)(=O)=O` [Example 4, N-(1-((cis)-4-(((R)-2-(5-Fluoropyridin-3-yl)-2-hydroxyethyl)amino)-cyclohexyl)-2-methylpropan-2-yl)methanesulfonamide] as the compound, how does the Emax at 10 µM (L6-myotubes [1]) read?
Its Emax at 10 µM is 50 to 75%.

What about the Emax at 10 µM (L6-myotubes [2]) of the same compound?
Its Emax at 10 µM is < 25%.

What does the source list for `CC(=O)N1CCC(C)(NC[C@H](O)c2cccc(F)c2)CC1` [Example 5, (R)-1-(4-((2-(3-Fluorophenyl)-2-hydroxyethyl)amino)-4-methyl-piperidin-1-yl)ethan-1-one]?
Emax at 10 µM (L6-myotubes [1]): 25 to 50%; Emax at 10 µM (L6-myotubes [2]): < 25%

`CC1(NC[C@H](O)c2cccc(F)c2)CCN(S(C)(=O)=O)CC1` [Example 6, (R)-1-(3-Fluorophenyl)-2-((4-methyl-1-(methylsulfonyl)piperidin-4-yl)-amino)ethan-1-ol] was tested. Which Emax at 10 µM (L6-myotubes [1]) did it give?
Its Emax at 10 µM is > 75%.

And the Emax at 10 µM (L6-myotubes [2])?
The Emax at 10 µM was < 25%.

For `CC(=O)N1CCC(C)(NC[C@H](O)c2cncc(F)c2)CC1` [Example 7, (R)-1-(4-((2-(5-Fluoropyridin-3-yl)-2-hydroxyethyl)amino)-4-methyl-piperidin-1-yl)ethan-1-one], which Emax at 10 µM (L6-myotubes [1]) is on record?
The Emax at 10 µM was 50 to 75%.

And the Emax at 10 µM (L6-myotubes [2])?
The Emax at 10 µM was < 25%.

With `CC1(NC[C@H](O)c2cncc(F)c2)CCN(S(C)(=O)=O)CC1` [Example 8, (R)-1-(5-Fluoropyridin-3-yl)-2-((4-methyl-1-(methylsulfonyl)piperidin-4-yl)amino)ethan-1-ol dihydrochloride] as the compound, how does the Emax at 10 µM (L6-myotubes [1]) read?
Its Emax at 10 µM is > 75%.

And the Emax at 10 µM (L6-myotubes [2])?
The Emax at 10 µM was 25 to 50%.

For `CCOC(=O)CO[C@H]1CC[C@H](NC[C@H](O)c2cccc(F)c2)CC1` [Example 9, Ethyl 2-(((trans)-4-(((R)-2-(3-fluorophenyl)-2-hydroxyethyl)amino)-cyclohexyl)oxy)acetate], which Emax at 10 µM (L6-myotubes [1]) is on record?
The Emax at 10 µM was 25 to 50%.

And the Emax at 10 µM (L6-myotubes [2])?
The Emax at 10 µM was < 25%.

How did the Emax at 10 µM (L6-myotubes [1]) turn out when `O=C(O)CO[C@H]1CC[C@H](NC[C@H](O)c2cccc(F)c2)CC1` [Example 10, 2-(((trans)-4-(((R)-2-(3-Fluorophenyl)-2-hydroxyethyl)amino)-cyclohexyl)oxy)acetic acid] was run?
Its Emax at 10 µM is 25 to 50%.

And the Emax at 10 µM (L6-myotubes [2])?
The Emax at 10 µM was < 25%.

For `CC(=O)N[C@H]1CC[C@@H](NC[C@H](O)c2cccc(F)c2)CC1` [Example 11, N-((cis)-4-(((R)-2-(3-fluorophenyl)-2-hydroxyethyl)amino)-cyclohexyl)acetamide], which Emax at 10 µM (L6-myotubes [1]) is on record?
The Emax at 10 µM was 50 to 75%.

And the Emax at 10 µM (L6-myotubes [2])?
The Emax at 10 µM was < 25%.

With `CC(=O)N[C@H]1CC[C@@H](NC[C@H](O)c2cncc(F)c2)CC1` [Example 12, N-((cis)-4-(((R)-2-(5-Fluoropyridin-3-yl)-2-hydroxyethyl)amino)-cyclohexyl)acetamide] as the compound, how does the Emax at 10 µM (L6-myotubes [1]) read?
The Emax at 10 µM was > 75%.

And the Emax at 10 µM (L6-myotubes [2])?
Its Emax at 10 µM is < 25%.

What does the source list for `CS(=O)(=O)N[C@H]1CC[C@@H](NC[C@H](O)c2cccc(F)c2)CC1` [Example 13, N-((cis)-4-(((R)-2-(3-Fluorophenyl)-2-hydroxyethyl)amino)cyclohexyl)-methanesulfonamide hydrochloride]?
Emax at 10 µM (L6-myotubes [1]): 50 to 75%; Emax at 10 µM (L6-myotubes [2]): < 25%

How did the Emax at 10 µM (L6-myotubes [1]) turn out when `CS(=O)(=O)N[C@H]1CC[C@@H](NC[C@H](O)c2cncc(F)c2)CC1` [Example 14, N-((cis)-4-(((R)-2-(5-Fluoropyridin-3-yl)-2-hydroxyethyl)amino)-cyclohexyl)methanesulfonamide] was run?
The Emax at 10 µM was > 75%.

And the Emax at 10 µM (L6-myotubes [2])?
Its Emax at 10 µM is < 25%.

`CC(=O)N[C@H]1CC[C@H](NC[C@H](O)c2cccc(F)c2)CC1` [Example 15, N-((trans)-4-(((R)-2-(3-Fluorophenyl)-2-hydroxyethyl)amino)-cyclohexyl)acetamide] was tested. Which Emax at 10 µM (L6-myotubes [1]) did it give?
The Emax at 10 µM was 25 to 50%.

And the Emax at 10 µM (L6-myotubes [2])?
The Emax at 10 µM was < 25%.

`CC(=O)N[C@H]1CC[C@H](NC[C@H](O)c2cncc(F)c2)CC1` [Example 16, N-((trans)-4-(((R)-2-(5-Fluoropyridin-3-yl)-2-hydroxyethyl)amino)-cyclohexyl)acetamide] was tested. Which Emax at 10 µM (L6-myotubes [1]) did it give?
The Emax at 10 µM was 25 to 50%.

What about the Emax at 10 µM (L6-myotubes [2]) of the same compound?
Its Emax at 10 µM is < 25%.

For `CS(=O)(=O)N[C@H]1CC[C@H](NC[C@H](O)c2cccc(F)c2)CC1` [Example 17, N-((trans)-4-(((R)-2-(3-Fluorophenyl)-2-hydroxyethyl)amino)-cyclohexyl)methanesulfonamide], which Emax at 10 µM (L6-myotubes [1]) is on record?
Its Emax at 10 µM is 50 to 75%.

And the Emax at 10 µM (L6-myotubes [2])?
Its Emax at 10 µM is < 25%.

How did the Emax at 10 µM (L6-myotubes [1]) turn out when `CS(=O)(=O)N[C@H]1CC[C@H](NC[C@H](O)c2cncc(F)c2)CC1` [Example 18, N-((trans)-4-(((R)-2-(5-fluoropyridin-3-yl)-2-hydroxyethyl)amino)-cyclohexyl)methanesulfonamide] was run?
Its Emax at 10 µM is 50 to 75%.

What about the Emax at 10 µM (L6-myotubes [2]) of the same compound?
The Emax at 10 µM was < 25%.

What does the source list for `COC(=O)CN1CCC(C)(NC[C@H](O)c2cccc(F)c2)CC1` [Example 19, Methyl (R)-2-(4-((2-(3-fluorophenyl)-2-hydroxyethyl)amino)-4-methyl-piperidin-1-yl)acetate dihydrochloride]?
Emax at 10 µM (L6-myotubes [1]): > 75%; Emax at 10 µM (L6-myotubes [2]): > 75%

`CC1(NC[C@H](O)c2cccc(F)c2)CCN(CC(=O)O)CC1` [Example 20, (R)-2-(4-((2-(3-Fluorophenyl)-2-hydroxyethyl)amino)-4-methyl-piperidin-1-yl)acetic acid acetate] was tested. Which Emax at 10 µM (L6-myotubes [1]) did it give?
The Emax at 10 µM was 50 to 75%.

What about the Emax at 10 µM (L6-myotubes [2]) of the same compound?
The Emax at 10 µM was < 25%.

Which Emax at 10 µM (L6-myotubes [1]) does the source give for `COC(=O)CS(=O)(=O)N1CCC(C)(NC[C@H](O)c2cccc(F)c2)CC1` [Example 21, Methyl (R)-2-((4-((2-(3-fluorophenyl)-2-hydroxyethyl)amino)-4-methylpiperidin-1-yl)sulfonyl)acetate hydrochloride] here?
Its Emax at 10 µM is > 75%.

And the Emax at 10 µM (L6-myotubes [2])?
The Emax at 10 µM was 25 to 50%.

For `CC1(NC[C@H](O)c2cccc(F)c2)CCN(S(=O)(=O)CC(=O)O)CC1` [Example 22, (R)-2-((4-((2-(3-Fluorophenyl)-2-hydroxyethyl)amino)-4-methyl-piperidin-1-yl)sulfonyl)acetic acid], which Emax at 10 µM (L6-myotubes [1]) is on record?
Its Emax at 10 µM is > 75%.

And the Emax at 10 µM (L6-myotubes [2])?
The Emax at 10 µM was < 25%.

How did the Emax at 10 µM (L6-myotubes [1]) turn out when `CCCCS(=O)(=O)N1CCC(C)(NC[C@H](O)c2cccc(F)c2)CC1` [Example 23, (R)-2-((1-(Butylsulfonyl)-4-methylpiperidin-4-yl)amino)-1-(3-fluoro-phenyl)ethan-1-ol acetate] was run?
The Emax at 10 µM was > 75%.

What about the Emax at 10 µM (L6-myotubes [2]) of the same compound?
The Emax at 10 µM was 25 to 50%.

With `CN(C)C(=O)N1CCC(C)(NC[C@H](O)c2cccc(F)c2)CC1` [Example 24, (R)-4-((2-(3-Fluorophenyl)-2-hydroxyethyl)amino)-N,N,4-trimethyl-piperidine-1-carboxamide acetate] as the compound, how does the Emax at 10 µM (L6-myotubes [1]) read?
Its Emax at 10 µM is > 75%.
